{"source": "PubChem BioAssay AID2068", "about": "(Sanford-Burnham Center for Chemical Genomics, 2009)", "molecular_target": "Tyrosine-protein phosphatase non-receptor type 7 (Homo sapiens) (UniProt P35236)", "sequence (P35236 whole entry, looked up)": "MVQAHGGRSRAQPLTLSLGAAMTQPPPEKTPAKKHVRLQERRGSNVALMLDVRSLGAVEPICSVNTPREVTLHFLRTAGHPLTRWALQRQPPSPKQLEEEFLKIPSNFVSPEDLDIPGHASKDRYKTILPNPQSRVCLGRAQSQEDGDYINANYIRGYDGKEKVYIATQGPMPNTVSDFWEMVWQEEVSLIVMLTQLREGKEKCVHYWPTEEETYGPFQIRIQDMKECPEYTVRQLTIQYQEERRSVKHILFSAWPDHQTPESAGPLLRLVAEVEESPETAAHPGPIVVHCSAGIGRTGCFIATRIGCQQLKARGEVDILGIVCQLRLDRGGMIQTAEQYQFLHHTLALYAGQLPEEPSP", "assay": "redox-active compounds inhibiting HePTP phosphatase – biochemical, fluorescence, mechanism study (AID 2068)", "details": "recombinant HePTP, fluorescent phosphatase assay, redox-state modulation"}
{"smiles": "O=C(O)CSc1cc(C(=O)c2ccccc2O)cn2c(=O)c3c(-c4ccccc4)csc3nc12", "values": [{"measurement": "IC50", "result": 1750, "unit": "nM"}]}
